Assay type in all cases: in vivo
The test system of one test is Cercospora beticola. The experiment in a line: Fungicidal activity: leaf spot of sugar beets (CERCBE). Conditions: 24 h, 1 Day Protectant, sugar beet, read-out: Disease Control CERCBE 1DP. How it is done:
Technical grades of materials were dissolved in acetone, which were then mixed with nine volumes of water containing 110 ppm Triton X-100. The fungicide solutions were applied onto wheat seedlings using an automated booth sprayer to run-off. All sprayed plants were allowed to air dry prior to further handling. Wheat plants (variety Yuma) were grown from seed in a greenhouse in 50% mineral soil/50% soil-less Metro mix until the first leaf was fully emerged, with 7-10 seedlings per pot. These plants were inoculated with an aqueous spore suspension of Septoria tritici either prior to or after fungicide treatments. After inoculation the plants were kept in 100% relative humidity (one day in a dark dew chamber followed by two to three days in a lighted dew chamber at 20° C.) to permit spores to germinate and infect the leaf. The plants were then transferred to a greenhouse set at 20° C. for disease to develop. When disease symptoms were fully expressed on the 1st leaves of untreated plants, infection levels were assessed on a scale of 0 to 100 percent disease severity. Percent disease control was calculated using the ratio of disease severity on treated plants relative to untreated plants. Evaluation of Fungicidal Activity: Leaf Spot of Sugar Beets (Cercospora beticola; Bayer Code CERCBE) Sugar beet plants (variety HH88) were grown in soil-less Metro mix and trimmed regularly to maintain a uniform plant size prior to test. Plants were inoculated with a spore suspension 24 hr after fungicide treatments. Inoculated plants were kept in a dew chamber at 22° C. for 48 hr then incubated in a greenhouse set at 24° C. under a clear plastic hood with bottom ventilation until disease symptoms were fully expressed. Fungicide formulation, application and disease assessment on the sprayed leaves followed the procedures as described in the Example A.

The test system of test [1] is Magnaporthe grisea; anamorph: Pyricularia oryzae. As to the kind of experiment: whole plant or invertebrate. The settings on record: 24 h, read-out: Disease Control PYRIOR 1 DP.
In another test the test system is Alternaria solani. As to the kind of experiment: Fungicidal activity: tomato early blight (ALTESO). Conditions: 24 h, 1 Day Protectant, read-out: Disease Control ALTESO 1DP. How it is done: Technical grades of materials were dissolved in acetone, which were then mixed with nine volumes of water containing 110 ppm Triton X-100. The fungicide solutions were applied onto wheat seedlings using an automated booth sprayer to run-off. All sprayed plants were allowed to air dry prior to further handling. Wheat plants (variety Yuma) were grown from seed in a greenhouse in 50% mineral soil/50% soil-less Metro mix until the first leaf was fully emerged, with 7-10 seedlings per pot. These plants were inoculated with an aqueous spore suspension of Septoria tritici either prior to or after fungicide treatments. After inoculation the plants were kept in 100% relative humidity (one day in a dark dew chamber followed by two to three days in a lighted dew chamber at 20° C.) to permit spores to germinate and infect the leaf. The plants were then transferred to a greenhouse set at 20° C. for disease to develop. When disease symptoms were fully expressed on the 1st leaves of untreated plants, infection levels were assessed on a scale of 0 to 100 percent disease severity. Percent disease control was calculated using the ratio of disease severity on treated plants relative to untreated plants. Evaluation of Fungicidal Activity: Tomato Early Blight (Alternaria solani; Bayer Code […]) Tomato plants (variety Outdoor girl) were propagated in soil-less Metro mix, with each pot having one plant, and used when 12 to 14 days old. Test plants were inoculated with an aqueous spore suspension of Alternaria solani 24 hr after fungicide treatments. After inoculation the plants were kept in 100% relative humidity (one day in a dark dew chamber followed by two to three days in a lighted dew chamber at 20° C.) to permit spores to germinate and infect the leaf. The plants were then transferred to a growth room at 22° C. for disease to develop. Fungicide formulation, application and disease assessment on the sprayed leaves followed the procedures as described in the Example A.

Test [2] deals with Blumeria graminis f.sp. tritici; synonym: Erysiphe graminis f.sp. tritici. The experiment in a line: Fungicidal activity: wheat powdery mildew (ERYSGT). The settings on record: 24 h, 1 Day Protectant, read-out: Disease Control ERYSGT 1 DP. How it is done: Technical grades of materials were dissolved in acetone, which were then mixed with nine volumes of water containing 110 ppm Triton X-100. The fungicide solutions were applied onto wheat seedlings using an automated booth sprayer to run-off. All sprayed plants were allowed to air dry prior to further handling. Wheat plants (variety Yuma) were grown from seed in a greenhouse in 50% mineral soil/50% soil-less Metro mix until the first leaf was fully emerged, with 7-10 seedlings per pot. These plants were inoculated with an aqueous spore suspension of Septoria tritici either prior to or after fungicide treatments. After inoculation the plants were kept in 100% relative humidity (one day in a dark dew chamber followed by two to three days in a lighted dew chamber at 20° C.) to permit spores to germinate and infect the leaf. The plants were then transferred to a greenhouse set at 20° C. for disease to develop. When disease symptoms were fully expressed on the 1st leaves of untreated plants, infection levels were assessed on a scale of 0 to 100 percent disease severity. Percent disease control was calculated using the ratio of disease severity on treated plants relative to untreated plants. Evaluation of Fungicidal Activity: Wheat Powdery Mildew (Blumeria graminis f.sp. tritici; Synonym: Erysiphe graminis f.sp. tritici; Bayer Code […]) Wheat plants (variety Yuma) were grown from seed in a greenhouse in 50% mineral soil/50% soil-less Metro mix until the first leaf was fully emerged, with 7-10 seedlings per pot. These plants were inoculated by dusting with infected stock plants 24 hr after fungicide treatments. After inoculation the plants were kept in a greenhouse set at 20° C. for disease to develop. Fungicide formulation, application and disease assessment on the sprayed leaves followed the procedures as described in the Example A.

Turning to `CCC(C)(C)O[C@H]1COC[C@H](NC(=O)c2nccc(OC)c2OCOC(C)=O)C(=O)O[C@@H](C)[C@@H]1OCC(C)C` [Compound 78], the pest or weed control at 100 ppm in the test with Cercospora beticola is 0 to 80%; in test [1], 80 to 100%; in the test on Alternaria solani it was 0 to 80%; in test [2], 80 to 100%.

Turning to `COc1ccnc(C(=O)N[C@H]2COC[C@H](OC(=O)C(C)C)[C@@H](OC(=O)C(C)C)[C@H](C)OC2=O)c1OCOC(C)=O` [Compound 57], the pest or weed control at 100 ppm with Cercospora beticola is 80 to 100%; in test [1], 80 to 100%; in the test with Alternaria solani it was 0 to 80%; in test [2] it was 0 to 80%.

`COc1ccnc(C(=O)N[C@H]2COC[C@H](OCC(C)C)[C@@H](OCC(C)C)[C@H](C)OC2=O)c1OCOC(C)=O` [Compound 3, (2-((3S,7S,8S,9S)-7,8-diisobutoxy-9-methyl-2-oxo-1,5-dioxonan-3-ylcarbamoyl)-4-methoxypyridin-3-yloxy)methyl]: the pest or weed control at 100 ppm in the test on Cercospora beticola fell in the range of 80 to 100%; in test [1], 80 to 100%; in the test with Alternaria solani, 0 to 80%; in test [2], 80 to 100%.

Take `COc1ccnc(C(=O)N[C@H]2COC[C@H](OC)[C@@H](OC)[C@H](C)OC2=O)c1OCOC(C)=O` [Compound 65]: the pest or weed control at 100 ppm in the test on Cercospora beticola fell in the range of 0 to 80%.

Turning to `COc1ccnc(C(=O)NC2COC[C@H](OCc3ccccc3)[C@@H](OCc3ccccc3)[C@H](C)OC2=O)c1OCOC(C)=O` (some centres unmarked) [Compound 12], the pest or weed control at 100 ppm was 80 to 100% in the test on Cercospora beticola, 80 to 100% in test [1], 0 to 80% in the test on Alternaria solani and 0 to 80% in test [2].

For the compound `COc1ccnc(C(=O)N[C@H]2COC[C@H](OCC(C)C)[C@@H](Oc3ccccc3)[C@H](C)OC2=O)c1OCOC(C)=O` [Compound 85], the pest or weed control at 100 ppm lay within 80 to 100% in the test with Cercospora beticola, 80 to 100% in test [1], 0 to 80% in the test with Alternaria solani and 0 to 80% in test [2].

For the compound `CCCCO[C@H]1COC[C@H](NC(=O)c2nccc(OC)c2OCOC(C)=O)C(=O)O[C@@H](C)[C@@H]1OCC(F)F` [Compound 55], the figures for the pest or weed control at 100 ppm (in the test with Cercospora beticola; in test [1]; in test [2]) were 80 to 100%, 80 to 100% and 0 to 80%, respectively.

Turning to `CCCCO[C@H]1COC[C@H](NC(=O)c2nccc(OC)c2OCOC(C)=O)C(=O)O[C@@H](C)[C@@H]1OCCOC` [Compound 54], the pest or weed control at 100 ppm (with Cercospora beticola; in test [1]; in test [2]) was 0 to 80% each time.

For the compound `COc1ccnc(C(=O)N[C@H]2COC[C@H](Oc3ccc(F)cc3)[C@@H](Oc3ccc(F)cc3)[C@H](C)OC2=O)c1OCOC(C)=O` [Compound 231], the pest or weed control at 100 ppm in the test with Cercospora beticola fell in the range of 0 to 80%; in test [1], 80 to 100%; with Alternaria solani, 0 to 80%.

Regarding `COc1ccnc(C(=O)N[C@H]2COC[C@H](Oc3ccc(F)cc3)[C@@H](Oc3ccc(F)cc3)[C@H](C)OC2=O)c1OC(C)=O` [Compound 229, 2-(((3S,7S,8S,9S)-7,8-bis(4-fluorophenoxy)-9-methyl-2-oxo-1,5-dioxonan-3-yl)carbamoyl)-4-methoxypyridin-3-yl acetate], the pest or weed control at 100 ppm in the test with Cercospora beticola lay in the range of 80 to 100%; in test [1] it was 80 to 100%; in the test with Alternaria solani, 0 to 80%.

Turning to `COc1ccnc(C(=O)N[C@H]2COC[C@H](OCCCC(F)(F)F)[C@@H](OCCCC(F)(F)F)[C@H](C)OC2=O)c1OCOC(C)=O` [Compound 68], the pest or weed control at 100 ppm in the test on Cercospora beticola is 80 to 100%; in test [1], 80 to 100%; with Alternaria solani, 0 to 80%; in test [2], 0 to 80%.

With `CCCO[C@H]1[C@H](C)OC(=O)[C@@H](NC(=O)c2nccc(OC)c2OCOC(C)=O)COC[C@@H]1Oc1ccccc1` [Compound 222], the pest or weed control at 100 ppm lay within 80 to 100% in the test on Cercospora beticola, 80 to 100% in test [1] and 0 to 80% in the test with Alternaria solani.

Take `CCCO[C@H]1COC[C@H](NC(=O)c2nccc(OC)c2OCOC(C)=O)C(=O)O[C@@H](C)[C@@H]1Oc1ccccc1` [Compound 221]: the pest or weed control at 100 ppm (in the test on Cercospora beticola; in test [1]) was 80 to 100% in each case.

Take `COc1ccnc(C(=O)N[C@H]2COC[C@H](Oc3ccccc3)[C@@H](OCC(C)C)[C@H](C)OC2=O)c1OCOC(C)=O` [Compound 86]: the pest or weed control at 100 ppm (in the test with Cercospora beticola; in test [1]; in the test with Alternaria solani; in test [2]) was 80 to 100% each time.

For the compound `COc1ccnc(C(=O)N[C@H]2COC[C@H](OCC(C)C)[C@@H](OCC(C)C)[C@H](C)OC2=O)c1OCOC(=O)C(C)C` [Compound 2], the pest or weed control at 100 ppm in the test on Cercospora beticola was in the range of 0 to 80%.

On to `COc1ccnc(C(=O)N[C@H]2COC[C@H](OCCCc3ccccc3)[C@@H](OCCCc3ccccc3)[C@H](C)OC2=O)c1OCOC(C)=O` [Compound 60], for which the pest or weed control at 100 ppm with Cercospora beticola lay within 80 to 100%; in test [1], 80 to 100%; in the test with Alternaria solani, 0 to 80%; in test [2] it was 0 to 80%.

In the case of `COc1ccnc(C(=O)N[C@H]2COC[C@H](OCC(C)C)[C@@H](OC3CCCCC3)[C@H](C)OC2=O)c1OCOC(C)=O` [Compound 77], the pest or weed control at 100 ppm in the test on Cercospora beticola was 80 to 100%; in test [1], 80 to 100%; in the test on Alternaria solani, 0 to 80%; in test [2], 0 to 80%.

Take `COc1ccnc(C(=O)N[C@H]2COC[C@H](Oc3ccccc3)[C@@H](Oc3ccccc3)[C@H](C)OC2=O)c1OCOC(C)=O` [Compound 84]: the pest or weed control at 100 ppm in the test on Cercospora beticola lay within 80 to 100%; in test [1], 80 to 100%; in the test with Alternaria solani, 0 to 80%; in test [2], 0 to 80%.

The values are drawn from US9144239B2, “Macrocyclic picolinamides as fungicides” (DOW AGROSCIENCES LLC, priority 2012, dated 2015).
